Measurements taken from patent US20240277705A1, “DOSAGE REGIMENS FOR ECUBECTEDIN” (PHARMA MAR S.A., priority 2021, published 2024).
Entries after “also recorded” stand apart in the source; their conditions may differ.

Experiments:
[1] = tested on: Caki-1 (kidney clear cell carcinoma); experiment: MTT cell viability assay, Caki-1; type: cell-based; conditions: Homo sapiens, CAKI-1, 72 h; read-out: GI50, M (geometric mean, N = 3)
Source text: Cell lines and cell culture: The following human cancer cell lines have been used in this example (the collection code and the tissue of origin are shown in brackets): • RXF 393 (NCI) (renal carcinoma) • Caki-1 (ATCC HTB-46) (kidney clear cell carcinoma)
Cell lines were obtained from the American Type Culture Collection (ATCC) or the National Cancer Institute (NCI). Cells were maintained in the appropriate culture medium, namely: • RPMI for RXF 393 • McCoy's 5A for Caki-1
All media were supplemented with 10% FBS, 2 mM L-Glutamine and 100 units/mL of penicillin-streptomycin.
Cell viability assay: To assess the antiproliferative activity of the compounds a colorimetric assay based on 3-(4,5-Dimethylthiazol-2-yl)-2,5-diphenyltetrazolium bromide (MTT) reduction was used. […] Culture medium was then removed and 100 μL of neat DMSO added to each well to dissolve the formazan product into a coloured solution whose absorbance at 540 nm was finally measured in a PolarStar Omega microplate multilabel reader (BMG Labtech, Ortenberg, Germany). […]
GI50 is finally used as reference value. […] To define a significant (ca. 70%) confidence interval for the geometric mean, its value must be multiplied and divided by the corresponding geometric standard deviation (GSD) which was also calculated. […]

[2] = tested on: advanced solid tumors; experiment: Phase I dose-escalating study, antitumor activity; type: in vivo, human; conditions: patients, various cancers
Source text: Antitumor response will be assessed using the RECIST v.1.1 and/or serum tumor markers as appropriate (see above).
Open-label, dose-escalating, phase I trial of PM14 administered as a 3-hour infusion i.v. every 3 weeks (q3wk) in human patients (pts) with advanced solid tumors, adequate organ function and ECOG PS score of 0-1. Two schedules were explored: Schedule A (Day 1 [D1], Day 8 [D8]) and Schedule B (D1).
Secondary Endpoints • Safety: patients will be evaluable for safety if they have received at least one partial infusion of PM14. AEs will be graded according to the NCI-CTCAE v.4. Additionally, treatment-related discontinuations and treatment compliance (dose reduction, skipped doses and/or treatment delays due to AEs), will be described. • Pharmacokinetics: PK analyses will be evaluated in plasma and urine by standard non-compartmental analysis (compartmental modeling may be performed if appropriate). […] Their mutational status might also be analyzed, if relevant. Their correlation with the clinical response and outcome after treatment will be assessed. • Efficacy: patients will be evaluable for efficacy if they receive at least one complete infusion of PM14 and have at least one clinical or radiological tumor assessment as per RECIST v.1.1 or serum markers, or if they are considered to have failed treatment. […]

COc1c(C)cc2c(c1O)[C@@H]1[C@@H]3[C@@H]4SC[C@]5(N[C@H](CO)Cc6c5[nH]c5ccccc65)C(=O)OC[C@@H](c5c6c(c(C)c(OC(C)=O)c54)OCO6)N3[C@@H](O)[C@H](C2)N1C [PM14, ECUBECTEDIN]
GI50 [1]: 0.611 nM | antitumor response [2]: prolonged tumor stabilizations; also recorded: stable disease (SD)
